Laboratory results reported in ChEMBL document CHEMBL3045419, “Synthesis and Acaricidal Activity of N-(3-Pyridylmethyl)pyrazolecarboxamide Derivatives” (1997).

Experiments:
Type in all cases: functional
[1] = system: Tetranychus urticae; assay: Acaricidal against Tetranychus urticae (two-spotted spider mite) assessed as mortality at 3.1 ppm
[2] = system: Tetranychus urticae; assay: Acaricidal against Tetranychus urticae (two-spotted spider mite) assessed as mortality at 200 ppm
[3] = system: Tetranychus urticae; assay: Acaricidal against Tetranychus urticae (two-spotted spider mite) assessed as mortality at 500 ppm
[4] = system: Tetranychus urticae; assay: Acaricidal against Tetranychus urticae (two-spotted spider mite) assessed as mortality at 50 ppm
[5] = system: Tetranychus urticae; assay: Acaricidal against Tetranychus urticae (two-spotted spider mite) assessed as mortality at 12.5 ppm

Structure (SMILES) | Activity [1] [%] | Activity [2] [%] | Activity [3] [%] | Activity [4] [%] | Activity [5] [%]
CCCc1ccc(CNC(=O)c2c(Cl)c(CC)nn2C)cn1 | 0 | 80 | 100 | 30 | 0
CCc1nn(C)c(C(=O)NCc2ccc(OCCCC(F)(F)F)nc2)c1Cl | 30 | 100 | 100 | 100 | 80
CCc1nn(C)c(C(=O)NCc2ccc(C(C)(C)C)nc2)c1Cl | 80 | 100 | 100 | 100 | 100
CCc1nn(C)c(C(=O)NCc2ccc(OCC(F)(F)C(F)F)nc2)c1Cl | 30 | 100 | 100 | 100 | 80
CCCCc1ccc(CNC(=O)c2c(Cl)c(CC)nn2C)cn1 | 0 | 100 | 100 | 100 | 30
CCc1nn(C)c(C(=O)NCc2ccc(OC(C)C(F)(F)F)nc2)c1Cl (stereo not given) | 30 | 100 | 100 | 100 | 100
CCc1nn(C)c(C(=O)NCc2ccc(CC(C)C)nc2)c1Cl | 0 | 100 | 100 | 100 | 30
CCc1nn(C)c(C(=O)NCc2cccnc2)c1Cl | 0 | 0 | 30 | 0 | 0
CCc1nn(C)c(C(=O)NCc2cnccc2C(C)(C)C)c1Cl | 100 | 100 | 100 | 100 | 100
CCCOc1ccc(CNC(=O)c2c(Cl)c(CC)nn2C)cn1 | 0 | 30 | 80 | 30 | 0
CCCCCc1ccc(CNC(=O)c2c(Cl)c(CC)nn2C)cn1 | 0 | 100 | 100 | 100 | 100
CCc1nn(C)c(C(=O)NCc2ccc(OCC(F)(F)C(F)(F)F)nc2)c1Cl | 30 | 100 | 100 | 100 | 80
CCc1nn(C)c(C(=O)NCc2ccc(CC(C)(C)C)nc2)c1Cl | 30 | 100 | 100 | 100 | 100
CCc1nn(C)c(C(=O)NCc2ccc(OCC(F)(F)C(F)(F)C(F)(F)F)nc2)c1Cl | 80 | 100 | 100 | 100 | 100
CCc1nn(C)c(C(=O)NCc2ccc(C(C)C)nc2)c1Cl | 0 | 100 | 100 | 100 | 30
CCCCOc1ccc(CNC(=O)c2c(Cl)c(CC)nn2C)cn1 | 30 | 100 | 100 | 80 | 30
CCc1nn(C)c(C(=O)NCc2ccc(OC(C)C)nc2)c1Cl | 0 | 100 | 100 | 80 | 30
